For this test, the system named is basal myocyte protein. The test can be described thus: Solid phase screening of Library 6 with unlabeled myocyte proteins; silver staining, on-bead tryptic digest. Format: binding, neonatal Wistar rats. Conditions: Normal Myocytes. On the procedure:
Myocytes were prepared from 1 to 5 day old neonatal Wistar rats (University of Copenhagen) according to literature procedure described in Busk et al., 2002, Cardiovasc. Res., 56: 64-75 and plated into eight P10 culture plates at 6 million cells/plate.
Isolated proteins that bound to specific ligands were identified using peptide mass fingerprinting. Mass spectra were recorded on a Bruker Reflex m MALDI time-of-flight mass spectrometer (Bruker-Daltonics, Bremen, Germany) operated in the positive reflectron mode using delayed extraction. Measurements were performed using the following parameters: Power 83-84 V; lens 7.300. The sum of 200-300 shots was used for each spectrum.
The spectra were calibrated using bradykinin peptide. In some cases, internal mass calibration was performed using a porcine trypsin autolysis product Peptide masses were searched against peptide mass maps in the National Center for Biotechnology Information (NCBI) database using the following search engines found on the world wide web (www.) for each of: • MS-FIT (prospector.ucsf.edu/ucsfhtml/msfit.htm), • Profound (129.85.19.192/profound_biniWebProFound.exe), and • MASCOT (matrixscience.com).
A search was performed using the NCBI bacterial (E. coli) database and the mammalian databases for the isolated proteins from the E. coli and myocyte samples, respectively, and the Swiss Prot mammalian databases and the Swiss Prot viral databases were searched to identify the porcine macrophage proteins and proteins, respectively. A molecular mass range was estimated from 0-250 K Da, allowing a mass accuracy that varied from 0.1 Da (some cases 0.3 Da) for each peptide mass. A large pI range from 0-14 or 0-12 was considered for each search. If no proteins matched, the mass window was extended. Partial enzyme cleavages allowing for two missed cleavage sites and modification of cysteine by alkylation were considered in the search approaches. A protein was considered identified if the matched peptides covered at least 30% of the complete sequence. A match of less than 30% was considered in some cases, if prominent peaks were obtained. Usually, four or more peptides were used for identification. In some instances, hypothetical proteins or gene products, such as biochemical material, either RNA or protein, calculated from the expected expression of a gene and to which a function may be assigned based on sequence homology, were identified.
Protein was extracted from myocytes prepared as described above for Example 9, using a new procedure (to preserve the activity of metalloproteases) modified from existing protocols, primarily: Amott, et al., 1998, Anal. Biochem. 258: 1-18. The media was removed from plates and cells were washed with ice cold phosphate buffer (5 ml, 10 mM, pH 7.5, supplemented with 0.15 M NaCl,) to remove traces of media components. The adhered cells were treated for 10 minutes with ice cold phosphate buffer (2 mL, 10 mM, pH 7.5, augmented with 0.15 M NaCl, […] E-64, 10 μg/mL Leupeptin, and 10 μg/mL Pepstatin A). The cells were scraped off the plates and then lysed (on ice) in a sonicator (2×) using 10 seconds off/110 seconds on cycles.
The resulting suspension was augmented with CHAPS (1% w/v), KCl (50 mM), NaCl (0.5 M), ZnCl2 (0.1 mM), DTT (5 mM), and urea (2 M). After 10-15 minutes on ice, the solution was centrifuged for 10 minutes at 15,000 rpm at 4° C. The supernatant was removed and protein content quantified using the NanoOrange Protein test (Molecular Probes, Eugene, Oreg.): Total protein recovered: 195 μg for PE-induced cells and 200 μg for basal cells.
The protein solutions were dialyzed extensively against 20 mM MES (2-[N-Morpholino]ethanesulfonic acid) buffer pH 6.0, supplemented with 0.15 M NaCl and 1 mM ZnCl2 to remove excess detergent and urea. […]

For `CC(C)C(NC(CCCCN)C(=O)N1CCN(C(=O)OC(C)(C)C)CC1)C(C)C` (stereo not shown), the “Identified Protein(s)” value is listed as “Angiotensin converting enzyme (P22967)”.

For the molecule `CCC(CCO)NC(CCCCN)C(=O)N1CCN(C(=O)OC(C)(C)C)CC1` (stereo not shown), the “Identified Protein(s)” value is recorded as “Angiotensin converting enzyme (P22967)”.

On to `CCOC(=O)C1CCCCC1NC(CCCCN)C(=O)NC(CCCCNC(=O)OC(C)(C)C)C(=O)O` (stereo not shown), for which the “Identified Protein(s)” value was “Angiotensin converting enzyme (P22967); U2 nuclear ribonuceoprotein zuxiliary factor (gi 2842676)”.

With `CCCCCCNC(=O)C(CCCCN)NC1CCCCC1C(=O)OCC` (stereo not shown), the “Identified Protein(s)” value was “Inward rectifier potassium channel 13 (Q9QZ65, IRKD_CAVPO); Sulfonylurea receptor 2 (Q63563); small conductance potassium channel (P58391)”.

As to `CCCCCCNC(=O)C(CCCCN)NC(CC)CCO` (stereo not shown), the “Identified Protein(s)” value was “Myosine heavy chain, nonmuscular type (AQ62812); Hypothetical protein E330017A01 (XP-148690.1)”.

As to `CCOC(=O)C(CCc1ccccc1)NC(CCCCN)C(=O)N[C@@H](C)C(=O)O` (stereo partly shown), the “Identified Protein(s)” value is reported as “Testase 1 or disintegrin 5 containing metalloproteinase domain 24 (gi 31981793); ADP-ribosylation factor like protein 8 (Q96KC2)”.

`CCOC(=O)C1CCCCC1NC(CCCCN)C(=O)N[C@@H](C)C(=O)O` (stereo partly shown): the “Identified Protein(s)” value is recorded as “Golgi coiled coil protein GCC185 (Q8CHG3)”.

With `CC(C)C(NC(CCCCN)C(=O)C[C@@H](C)C(=O)O)C(C)C` (stereo partly shown), the “Identified Protein(s)” value is “Mysoin heavy chain nonmuscular type (AQ62812)”.

Turning to `CCOC(=O)C(CCc1ccccc1)NC(CCCCN)C(=O)N1CCC[C@H]1C(=O)O` (stereo partly shown) [drawing 164], the “Identified Protein(s)” value is reported as “Angiotensin converting enzyme (P22967); U2 nuclear ribonucleoprotein auxxiliary factor (gi 2842676)”.

On to `CCCCCCNC(=O)C(CCCCN)NC(C(C)C)C(C)C` (stereo not shown) [drawing 170], for which the “Identified Protein(s)” value was “Heat Shock protein 70 kDa protein 12A (Q8KOU4); Ser- ine/threonine protein kinase (O88866); Ras GTPase acti- vating protein 2 (GAP1m) (58069)”.
